The values that follow come from US11077120B2, “Prostaglandin receptor EP2 antagonists, derivatives, compositions, and uses related thereto” (Emory University, priority 2014, dated 2021).

The target in one data set is T1, human EP4 receptors (Homo sapiens, UniProt P35408).
T1 construct: expressed in transfected cells
Kind of data set: cell-based cAMP TR-FRET assay, EP4 (agonist PGE2). The following applies: for potency estimated from few doses / Selective Index EP4/EP2: Table 2; for potency estimated from few doses: extrapolated Schild KB from single concentration of 10 μM. On the procedure: (§1) These derivatives were selected for testing against EP4 and IP receptors. Cell lines were created that overexpress EP4 receptors, or IP receptors on C6-glioma cells. A cAMP-derived TR-FRET assay was developed using agonists PGE2 (for EP4) and iloprost (for IP), similar to EP2 assay.
(§2) Intracellular cAMP was measured with a cell-based homogeneous time-resolved fluorescence resonance energy transfer (TR-FRET) method (Cisbio Bioassays). […] Endogenous cAMP produced by cells competes with labeled cAMP for binding to the cAMP antibody and thus reduces the FRET signal. Cells stably expressing human DP1, EP2, EP4, or IP receptors were seeded into 384-well plates in 30 μl complete medium (4,000 cells/well) and grown overnight. The medium was carefully withdrawn and 10 μl Hanks' Buffered Salt Solution (HBSS) (Hyclone) containing 20 μM rolipram was added into the wells to block phosphodiesterases. The cells were incubated at room temperature for 0.5-1 h and then treated with vehicle or test compound for 10 min before addition of increasing concentrations of appropriate agonist: BW245C for DP1, PGE2 for EP2 and EP4, or iloprost for IP. The cells were incubated at room temperature for 40 min, then lysed in 10 μl lysis buffer containing the FRET acceptor cAMP-d2 and 1 min later another 10 μl lysis buffer with anti-cAMP-Cryptate was added. After 60-90 min incubation at room temperature, the FRET signal was measured by an Envision 2103 Multilabel Plate Reader (PerkinElmer Life Sciences) with a laser excitation at 337 nm and dual emissions at 665 nm and 590 nm for d2 and Cryptate (50 s delay), respectively. The FRET signal was expressed as: F665/F590×10^4.

Data set [1] can be described thus: aqueous solubility by nephelometry. The following applies: for aqueous solubility (in words): PBS buffer (pH 7.4) with 1% DMSO, nephelometry.
The next data set in a line: in vitro. As to conditions: rat.
The next data set deals with T2, human IP receptors (Homo sapiens, UniProt P43119).
T2 construct: expressed in transfected cells
The data set can be described thus: cell-based cAMP TR-FRET assay, IP (agonist iloprost). The following applies: for potency estimated from few doses / Selective Index (IP/EP2): Table 2; for potency estimated from few doses: extrapolated Schild KB from single concentration of 10 μM. How it is done: as §1, §2

Another data set deals with T3, human EP2 receptors (Homo sapiens, UniProt P43116).
T3 construct: expressed in transfected cells
The data set can be described thus: cell-based cAMP TR-FRET assay, rightward shift of PGE2 concentration response curve (Schild KB), EP2. The following applies: for mechanism of antagonism of EP2: Schild regression analysis. How it is done:
KB value indicates the antagonist concentration required for a twofold rightward shift in the PGE2 dose-response curve. Thus, a lower KB value indicates a higher inhibitory potency.
(§3) The synthesis was carried out starting from commercially available 2-methyl indole or 2-trifluoromethyl indoles (11a-c), which on treatment with bromoacetonitrile provided intermediates (12a-c), which then were subjected to lithium aluminum hydride to reduce cyanide to amines. […] Synthesized derivatives were tested by using a cAMP-derived TR-FRET assay, at single concentration (1 μM) to observe a rightward shift of PGE2 (an EP2 agonist) concentration response curve in a C6G cell line that overexpresses human EP2 receptors.
A lower KB value indicates a higher inhibitory potency.
as §2

Data set [2] can be described thus: liver microsomal stability, human.
Data set [3] can be described thus: liver microsomal stability, mouse. For orientation: Microsomes from liver hold many membrane-bound enzymes, among them those of drug oxidation.
In a further data set the target is T4, human DP1 receptors (Homo sapiens, UniProt Q13258).
T4 construct: expressed in transfected cells
T4 sequence (Q13258 1-359): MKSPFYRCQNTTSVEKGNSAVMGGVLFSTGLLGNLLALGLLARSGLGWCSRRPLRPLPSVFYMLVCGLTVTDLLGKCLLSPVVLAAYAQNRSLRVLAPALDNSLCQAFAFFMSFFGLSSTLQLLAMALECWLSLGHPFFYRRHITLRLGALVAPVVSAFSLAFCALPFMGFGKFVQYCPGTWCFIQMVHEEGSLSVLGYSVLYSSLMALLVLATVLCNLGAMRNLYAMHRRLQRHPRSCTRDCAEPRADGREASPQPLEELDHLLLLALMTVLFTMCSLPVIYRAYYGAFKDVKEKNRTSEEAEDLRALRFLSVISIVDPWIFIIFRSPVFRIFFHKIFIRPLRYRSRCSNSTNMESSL
Kind of data set: cell-based cAMP TR-FRET assay, DP1 (agonist BW245C). As to conditions: for Selective Index (DP1/EP2) / Kb: Table 2; for Kb: read-out: KB DP1; for selectivity against DP1: EP2 over DP1. How it is done:
as §3
as §2, with “After 60-90 min incubation at room temperature, the FRET signal was measured by an Envision 2103 Multilabel Plate Reader (PerkinElmer Life Sciences) with a laser excitation at 337 nm and dual emissions at 665 nm and 590 nm for d2 and Cryptate (50 s delay), respectively.” left out
Background: Time-resolved FRET reads energy transfer from a long-lived donor to a nearby acceptor.

A further data set has as its system C6-glioma cells. The following applies: rat.
The mark [4] stands for this setting: Table 3, PBS buffer (pH 7.4) with 1% DMSO by nephelometry.
Setting [5] is: single concentration values, read-out: EP2 potency (Schild KB).
Setting [6] is: Table 1, Schild KB from single antagonist concentration 1 μM, average of 2-3 measurements in duplicate, read-out: EP2 KB.
Where [7] appears, read: Table 2, average of 2-3 independent experiments in duplicate, read-out: KB EP2.

In brackets after ≈: the same amount, converted by molar mass. Where two headings read alike, the source gives them in different places. Where only a bound is given, the exact number is not on record here.

T1 sequence (P35408 whole entry): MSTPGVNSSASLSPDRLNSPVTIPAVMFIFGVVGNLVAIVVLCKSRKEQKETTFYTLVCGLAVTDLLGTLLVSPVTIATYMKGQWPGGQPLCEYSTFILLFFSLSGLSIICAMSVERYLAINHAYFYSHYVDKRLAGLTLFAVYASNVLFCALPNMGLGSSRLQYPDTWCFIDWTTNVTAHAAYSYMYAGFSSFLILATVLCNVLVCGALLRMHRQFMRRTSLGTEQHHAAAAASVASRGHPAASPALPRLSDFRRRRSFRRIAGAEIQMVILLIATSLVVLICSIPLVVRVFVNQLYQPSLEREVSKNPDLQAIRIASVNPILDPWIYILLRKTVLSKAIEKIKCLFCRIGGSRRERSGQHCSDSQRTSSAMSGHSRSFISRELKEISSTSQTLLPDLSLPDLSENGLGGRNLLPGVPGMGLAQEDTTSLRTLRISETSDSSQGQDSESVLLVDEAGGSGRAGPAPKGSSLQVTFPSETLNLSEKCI
T3 sequence (P43116 whole entry): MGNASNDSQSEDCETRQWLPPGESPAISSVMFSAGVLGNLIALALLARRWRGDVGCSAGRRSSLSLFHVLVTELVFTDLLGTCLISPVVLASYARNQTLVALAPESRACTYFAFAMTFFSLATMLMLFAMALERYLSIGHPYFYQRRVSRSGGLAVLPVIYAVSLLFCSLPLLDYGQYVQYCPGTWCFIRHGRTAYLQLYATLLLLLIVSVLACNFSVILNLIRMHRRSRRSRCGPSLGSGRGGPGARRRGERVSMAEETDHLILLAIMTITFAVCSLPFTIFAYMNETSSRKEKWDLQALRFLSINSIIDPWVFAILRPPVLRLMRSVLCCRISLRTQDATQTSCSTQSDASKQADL
T2 sequence (P43119 whole entry): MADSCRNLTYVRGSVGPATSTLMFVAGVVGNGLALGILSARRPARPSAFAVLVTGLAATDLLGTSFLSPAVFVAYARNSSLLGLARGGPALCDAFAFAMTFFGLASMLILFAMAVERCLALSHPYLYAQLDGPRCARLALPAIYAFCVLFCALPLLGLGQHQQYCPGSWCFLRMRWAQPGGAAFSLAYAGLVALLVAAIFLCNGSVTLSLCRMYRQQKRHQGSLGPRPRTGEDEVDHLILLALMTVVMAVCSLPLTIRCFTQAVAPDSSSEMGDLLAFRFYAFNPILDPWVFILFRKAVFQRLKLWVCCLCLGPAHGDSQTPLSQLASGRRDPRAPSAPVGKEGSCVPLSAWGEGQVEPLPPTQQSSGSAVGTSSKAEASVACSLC
Procedure for C6-glioma cells: (§4) CC50 are average one measurement run in triplicate.
(§5) Several of compounds were examined against EP4 and IP receptors at single concentration of 10 μM.
Procedure for in vitro: as §4, §5

`Cc1cc2ccccc2n1CCNC(=O)c1ccc(-c2nnn[nH]2)cc1` [Compound 7z]: the potency estimated from few doses at human EP4 receptors and at human IP receptors was above 10000 µM each time. The “aqueous solubility (in words)” value in data set [1] is recorded as “high aqueous solubility”. Moreover, the CC50 in the data set “in vitro” is above 300 µM.

As for `COc1cc(/C=C/C(=O)NCCn2c(CN3CCOCC3)cc3ccccc32)cc(OC)c1OC` [Compound 15l], the Solubility (as a rule, the dissolved amount per volume that the medium holds) in data set [1] (setting [4]) came to 91 µM (≈ 43.6 µg/mL).

The molecule `Cc1[nH]c2ccccc2c1CCNC(=O)/C=C/c1ccc(OCCO)cc1` [Compound 16d] returned a Solubility in data set [1] (PBS buffer, pH 7.4, aqueous buffer, kinetic from dmso stock) of 68 µM (≈ 24.8 µg/mL). In addition, the Kb on human EP2 receptors (Table 3, Schild KB from single concentration 1 μM, read-out: EP2 KB) is 0.0136 µM; at human EP2 receptors (Table 4, read-out: KB EP2), 0.0136 µM; on human EP2 receptors (setting [5]) it was 0.0114 to 0.0136 µM. The same molecule returned a CC50 in the data set “in vitro” of 81.7 µM.

For the molecule `Cc1[nH]c2ccccc2c1CCNC(=O)/C=C/c1ccc(OCCO)c(OCCO)c1` [Compound 16c, (E)-3-(3,4-bis(2-hydroxyethoxy)phenyl)-N-(2-(2-methyl-1H-indol-3-yl)ethyl)acrylamide], the “% of Parent Compound Remaining at 60 min vs. T = 0 min, Human Liver Microsomes” value in data set [2] (1 μM) worked out at 58.5%; in data set [2] (10 μM), 70.4%. In [1], the “aqueous solubility (in words)” value was “very soluble”. The same molecule registered a Solubility in [1] (setting [4]) of 235 µM (≈ 99.8 µg/mL). Besides, the “% of Parent Compound Remaining at 60 min vs. T = 0 min, Mouse Liver Microsomes” value is on record as 7.1% in [3] (1 μM) and 19.3% in data set [3] (10 μM).

Consider `Cc1cc2ccccc2n1CCNC(=O)c1ccc(N2CCC(C(=O)O)CC2)cc1` [Compound 7n], for which, in data set [1], the “aqueous solubility (in words)” value is on record as “high aqueous solubility”. Moreover, the Kb on human EP2 receptors (setting [6]) is 0.0897 µM.

With `Cc1cc2ccccc2n1CCNC(=O)/C=C/c1ccc(OCCCO)cc1` [Compound 16e], the Solubility in data set [1] (setting [4]) is 66 µM (≈ 25 µg/mL).

With `Cc1cc2ccccc2n1CCNC(=O)c1ccc(N2CCOCC2)c(F)c1` [Compound 7t], the “selectivity over EP4” value at human EP4 receptors (EP2 over EP4) was around 600 fold. In addition, at human EP4 receptors, the “Selective Index EP4/EP2” value came to 565 and the potency estimated from few doses is 14.5 µM. The “Selective Index (DP1/EP2)” value on human DP1 receptors is listed as 85. Also, in the data set with C6-glioma cells, the “Therapeutic Index (CC50/EP2 KB)” value was >19,450. The molecule further returned a CC50 in “in vitro” above 500 µM. In addition, at human IP receptors, the “Selective Index (IP/EP2)” value is recorded as 217 and the potency estimated from few doses is 5.6 µM.

`COc1cc(/C=C/C(=O)NCCn2c(CNC3CCN(C)CC3)cc3ccccc32)cc(OC)c1OC` [Compound 15m] came in with a Solubility in data set [1] (setting [4]) of 180 µM (≈ 91.2 µg/mL).

With `Cc1cc2ccccc2n1CCNC(=O)c1ccc(N2CCCCC2)cc1` [Compound 7k, N-(2-(2-Methyl-1H-indol-1-yl)ethyl)-4-(piperidin-1-yl)benzamide], at human EP4 receptors, the “Selective Index EP4/EP2” value is reported as 3,210 and the potency estimated from few doses is 30.2 µM. Also, at human DP1 receptors, the “Selective Index (DP1/EP2)” value stood at 273 and the Kb was 2.57 µM. Besides, in the data set with C6-glioma cells, the CC50 is 315 µM and the “Therapeutic Index (CC50/EP2 KB)” value was 33,510. For the same molecule, the “fold improved/higher EP2 potency in comparison to 6b” value (“fold improved/higher EP2 potency” for short) at human EP2 receptors is reported as “about 2.3 fold”. Moreover, the Kb on human EP2 receptors (setting [6]) came out at 0.0094 µM. Besides, at human IP receptors, the “Selective Index (IP/EP2)” value is reported as 360 and the potency estimated from few doses was 3.4 µM.

Turning to `Cc1cc2ccccc2n1CCNC(=O)c1ccc(N2CCOCC2)cc1` [Compound 7p, N-(2-(2-Methyl-1H-indol-1-yl)ethyl)-4-morpholinobenzamide], at human EP4 receptors, the “Selective Index EP4/EP2” value is 2,190 and the potency estimated from few doses was 21 µM. On human DP1 receptors, the “Selective Index (DP1/EP2)” value was 533 and the Kb is 5.21 µM. For the same molecule, in the data set on C6-glioma cells, the CC50 turned out to be 289 µM and the “Therapeutic Index (CC50/EP2 KB)” value is recorded as 30,100. Further, on human EP2 receptors, the “fold improved/higher EP2 potency” value is listed as “about 2.3 fold” and the “mechanism of antagonism of EP2” value is “competitive”. Moreover, at human EP2 receptors (setting [6]), the Kb was 0.0096 µM. Besides, on human IP receptors, the “Selective Index (IP/EP2)” value is given as 206 and the potency estimated from few doses is 1.98 µM.

For `CCN(CC)c1ccc(C(=O)NCCc2c(C)[nH]c3ccccc23)cc1` [Compound 9a, 4-(Diethylamino)-N-(2-(2-methyl-1H-indol-3-yl)ethyl)benzamide], on human EP4 receptors, the “Selective Index EP4/EP2” value was 6,945. Also, the potency estimated from few doses at human EP4 receptors is 48 µM; at human IP receptors it was above 10000 µM. The “Selective Index (DP1/EP2)” value on human DP1 receptors was 1374. Also, the Kb is 9.48 µM on human DP1 receptors, 0.0069 µM at human EP2 receptors (setting [6]) and around 0.01 µM at human EP2 receptors (setting [5]). The “Therapeutic Index (CC50/EP2 KB)” value in the data set on C6-glioma cells is given as >72,460. The “mechanism of antagonism of EP2” value at human EP2 receptors is “competitive”. The CC50 in “in vitro” is above 500 µM.

As for `Cc1cc2ccccc2n1CCNC(=O)c1ccc(N(C)C)cc1` [Compound 6e, 4-(Dimethylamino)-N-(2-(2-methyl-1H-indol-1-yl)ethyl)benzamide], the potency estimated from few doses on human EP4 receptors is 51 µM; at human IP receptors, 4.7 µM. Also, the figures for the Kb on human DP1 receptors and at human EP2 receptors (setting [6]) were 6.43 µM and 0.0098 µM, respectively. In the data set with C6-glioma cells, the CC50 turned out to be 310 µM.

With `CCN(CC)c1ccc(C(=O)NCCn2c(C)cc3ccccc32)cc1` [Compound 6f, 4-(Diethylamino)-N-(2-(2-methyl-1H-indol-1-yl)ethyl)benzamide], at human EP4 receptors, the “Selective Index EP4/EP2” value is 11,590 and the potency estimated from few doses was 31.3 µM. For the same molecule, at human DP1 receptors, the “selectivity against DP1” value was above 1200 fold, the “Selective Index (DP1/EP2)” value is recorded as 1,220 and the Kb worked out at 3.19 µM. Moreover, in the data set on C6-glioma cells, the CC50 stood at 320 µM and the “Therapeutic Index (CC50/EP2 KB)” value is 118,520. Moreover, on human EP2 receptors, the “fold improved/higher EP2 potency” value is around 8 fold and the “mechanism of antagonism of EP2” value is on record as “competitive”. The Kb on human EP2 receptors (setting [7]) was 0.0027 µM. Besides, the Kb at human EP2 receptors (setting [5]) was around 0.01 µM. The “selectivity against the IP receptor” value at human IP receptors (EP2 over IP) is around 3000 fold. On human IP receptors, the “Selective Index (IP/EP2)” value was 2,960 and the potency estimated from few doses is 8 µM.

With `Cc1cc2ccccc2n1CCNC(=O)c1ccc(N2CCCC2)cc1` [Compound 7j, N-(2-(2-Methyl-1H-indol-1-yl)ethyl)-4-(pyrrolidin-1-yl)benzamide], at human EP4 receptors, the “Selective Index EP4/EP2” value is listed as 1,160 and the potency estimated from few doses was 28.7 µM. Besides, on human DP1 receptors, the “selectivity against DP1” value is 516 fold, the “Selective Index (DP1/EP2)” value is above 516 and the Kb is above 10 µM. Also, in the data set on C6-glioma cells, the CC50 is 337 µM and the “Therapeutic Index (CC50/EP2 KB)” value is 16,120. In addition, the Kb on human EP2 receptors (setting [7]) is 0.0247 µM. For the same molecule, on human IP receptors, the “Selective Index (IP/EP2)” value was found to be 570 and the potency estimated from few doses is 14.2 µM.
